# Measured values from patent US20220387467A1, “USE OF SGLT2 INHIBITORS TO TREAT PRIMARY BILLIARY CHOLANGITIS” (AVOLYNT, priority 2019, published 2022).
# Entries after “also recorded” stand apart in the source; their conditions may differ.
# Key:
# [1] = Plasma remogliflozin after oral immediate release (IR) tablet; assay type: in vivo
# From the text: Oral dosage forms according to the invention are typically tablets or capsules. Tablets can be obtained by direct compression of the mixed components of a dosage form, including a therapeutically effective amount of an SGLT2 inhibitor, and selected excipients, like cellulose derivatives, metacrylates, chitosan, carboxymethylstarch, or mixtures thereof. For example, a compressed tablet according to the invention, can be prepared by granulating a SGLT2 inhibitor with microcrystalline cellulose and croscarmellose sodium with a water and povidone solution. The resulting granules are dried, milled, and then blended with mannitol, microcrystalline cellulose, and croscarmellose. The blend is lubricated with magnesium stearate and compressed. […] Indeed, Tmax for an IR remogliflozin etabonate oral dosage form according to the invention occurs at 1 hour, or less, following ingestion of the dosage form by a subject.
# TIA mice = assay: TIA mouse model of liver and biliary disease resembling PBC/PSC, H&E liver histology and survival; assay type: in vivo; conditions: for inflammation at the interface between the hepatic parenchyma and the portal tracts (interface hepatitis) / proliferation of bile ductules (bile ductular proliferation) / periportal and biliary inflammation: TIA mice at 11 weeks, H&E liver sections, vs untreated TIA mice; for inflammation at the interface between the hepatic parenchyma and the portal tracts (interface hepatitis): 0.03% in chow for 7 weeks; for proliferation of bile ductules (bile ductular proliferation) / periportal and biliary inflammation: 0.03% in chow from 4 weeks of age
# From the text: The following Examples describe the utilization of a murine model of liver damage to assess the effectiveness of a treatment regimen based on the oral administration of remogliflozin etabonate. The murine model is based on mice that are deficient for the expression of tumor necrosis factor alpha (“TNFα”), interleukin 10 (“IL-10”), and activation-induced cytidine deaminase (“AICDA”). As the mice are deficient in TNF, IL-10, and AICDA, they are referred to, herein, as “TIA” mice. These liver outcomes in these animals also closely resemble that of PBC.
# Moreover, as AICDA is required for immunoglobulin (“Ig”) class switching, TIA mice lack IgG and IgA, a phenotype analogous to humans with hyper-IgM syndrome. Therefore, with the combination of AICDA deficiency with the risk factors associated with TNFα and IL-10 deficiencies, TIA mice also develop liver and biliary inflammation reminiscent of PSC and PBC symptoms in humans. Accordingly, the TIA model is useful for investigating mechanisms that act early in PBC pathogenesis, as well as treatments that can prevent progression to PBC and PSC.
# Example 1. Orally-administered remogliflozin etabonate reduces inflammatory cell infiltration, bile ductular proliferation, and interface hepatitis in TIA mice. TIA mice were created by first breeding TNFα knock out (“KO”) C57BL/6 mice, (strain B6.129S-Tnf^tm1Gkl/J, stock #005540, Jackson Laboratories, Bar Harbor, Me.) with IL-10 KO mice (strain B10.129P2(B6)-IL10^tm1Cgn/J, Stock No. 002251, Jackson Laboratories) to produce a population of mice that were deficient in TNFα and IL-10. Because mice with a TNFα −/− and IL10 −/− genotype spontaneously develop inflammatory bowel disease (“IBD”) (Hale 2012), a condition associated with poor breeding success (Nagy 2016), the mice needed for further breeding to generate an AICDA population, were generated by breeding offspring with a TNFα and IL10+/− genotype with AICDA −/− mice, which were obtained from Dr. Tasuku Honjo (Muramatsu 2000)), to produce a population of TNFα −/−, IL10 −/−, and AICDA+/−(“TI-hetA”) males and females. In turn, TI-hetA pairs were bred to generate populations that were 25% TIA mice, and 50% non-colitis-susceptible TI-hetA littermates that could be used as control populations. All populations were exposed to the same environment from birth. The mice were housed in polycarbonate micro-isolator cages, in individually ventilated racks, under barrier conditions that excluded all known pathogens, including Helicobacter pylori and Norovirus. Mice had ad libitum access to water, and to a standard diet (PicoLab Mouse Diet 20/5058, LabDiet, St. Louis, Mo., USA).
# At four (4) weeks of age, TIA (40) and TI-hetA (22) mice were randomized into experimental groups that received either a standard diet (20 TIA and 12 het), or a standard diet formulated 0.03% remogliflozin etabonate (20 TIA and 10 het) (Avolynt Inc., USA). The mice were maintained on this diet for seven (7) weeks. Body weights were obtained three (3) times, weekly, to assess the general health of mice, and to track the development of inflammatory bowel disease (IBD). Glycosuria in the experimental groups was assessed by applying freshly voided urine directly to the glucose test patch on an Accutest® URS-10 urinary reagent test strips (Jant Pharmaceutical Corp., Encino, Calif., USA). Mice were humanely euthanized before reaching the experimental endpoint, of eleven (11) weeks of age, if they lost >15% body weight, or developed rectal prolapse.
# To characterize biliary lesions in TIA mice at the end of the 7 week treatment period, liver tissue was obtained from the remogliflozin-treated, and untreated groups, for histologic examination. The excised liver tissue was fixed in Carnoy's fixative solution, and processed into paraffin blocks. The paraffin blocks were sectioned, and stained with Hematoxylin and eosin (H&E) for pathologic analysis. The H&E-stained sections were scored by an American Board of Pathology-certified pathologist. […]
smiles,measurement,setting,value
CCOC(=O)OC[C@H]1O[C@@H](Oc2nn(C(C)C)c(C)c2Cc2ccc(OC(C)C)cc2)[C@H](O)[C@@H](O)[C@@H]1O [remogliflozin etabonate],Tmax,"[1]; IR remogliflozin etabonate oral dosage form, following ingestion",≤ 1 h
same,remogliflozin plasma concentration after clearance,"[1]; compressed IR tablet, 350 mg remogliflozin etabonate, oral, after 3 hrs",40 ng/mL
same,maximum remogliflozin plasma concentration (Cmax),"[1]; compressed IR tablet, 350 mg remogliflozin etabonate, oral, at 1 hr post-ingestion",160 ng/mL
same,number of TIA mice that required early euthanasia,"TIA mice; Remo group versus control group, 7 week study",no statistical difference
same,early death,"TIA mice; Remo group versus control group, not statistically significant",trend toward decreased early death
same,inflammation at the interface between the hepatic parenchyma and the portal tracts (interface hepatitis),TIA mice,reduces
same,inflammation at the interface between the hepatic parenchyma and the portal tracts (interface hepatitis),TIA mice; listed as remogliflozin,less inflammation
same,proliferation of bile ductules (bile ductular proliferation),TIA mice,reduces
same,periportal and biliary inflammation,TIA mice; listed as Remo,decrease in periportal and biliary inflammation
same,proliferation of bile ductules (bile ductular proliferation),TIA mice; listed as Remo,decrease in proliferation of bile ductules
same,periportal and biliary inflammation,TIA mice; listed as remogliflozin,less inflammation
same,proliferation of bile ductules (bile ductular proliferation),TIA mice; listed as remogliflozin,less proliferation of bile ductiles
same,development and progression of liver and biliary disease,"TIA mice; TIA mice, 0.03% remogliflozin etabonate in diet for 7 weeks from 4 weeks of age, vs standard diet",prevents the progression of PBC disease pathology; also recorded: markedly less development and progression of liver and biliary disease
same,inflammatory cell infiltration,"TIA mice; TIA mice, oral, 0.03% in diet for 7 weeks",reduces
